Measurements from patent publication US5770587A, “Antifungal agents” (Merck & Co., Inc., priority 1996, dated 1998).

Legend:
Assay type in all cases: cell-based
[1] = system: Candida guillermondii (MY1019); experiment: broth microdilution assay (MIC/MFC)
Experimental: (§1) In the microbroth dilution assay, microorganisms were selected by streaking a yeast culture on Sabouraud dextrose agar (SDA) incubating for 24-48 hours at 35°-37° C., thereafter selected 3 to 5 characteristic colonies and transferring to a fresh plate and incubating under similar conditions. From the regrowth, 3 to 5 colonies were selected and suspended in 10 milliliters of YM broth (Difco) and incubated for 4 hours at 35°-37° C. shaking at 225 rpm. The 4 hour broth cultures were adjusted optically to 86% transmission resulting in a concentration of 1-5×10^6 cfu/ml which was further diluted 1:100 in YNBD (yeast nitrogen base with 1 % dextrose) to obtain a concentration of 1-5×10^4 cfu/ml for use as inocula.
(§2) The test compounds, Compounds I and II, were dissolved at 512 μg/ml in 10% DMSO and diluted 2× into the first well to achieve a concentration of 256 μg/ml at 5% DMSO in the first well. Compounds are subsequently serially diluted 2× and cell suspension is added to each well resulting in an additional 2× dilution of compound. 75 μl of said solution is delivered to each well in column 1 of a 96-well, U-bottomed microtiter plate. The compounds in column 1 were then serially diluted two-fold to yield concentrations from 128 μg/ml to 0.06 μg/ml.
(§3) The plates containing the diluted compounds were then inoculated with 75 μl/well of the appropriate microorganism and incubated for 48 hours at 35°-37° C. with MIC (minimum inhibitory concentration) determinations carried out after 24 hours of incubation (except Cryptococcus strains which are read at 48 hours). Growth and sterility controls for each organism and sterility checks for the compounds also were carried out.
(§4) After recording MICs at 24 hours, the microtiter plates were shaken gently to resuspend the cells. A 1.5 μl sample was transferred from each well of the 96-well microtiter plate to a single reservoir inoculum plate containing SDA. The inoculated SDA and corresponding microtiter plates were incubated for 24 hours at 35°-37° C. For Cryptococcus neoformans, SDA plates were inoculated at 48 hours after recording MICs and incubated 48 hours before reading the MFC. MFC is the lowest concentration of compound at which either no growth or growth of ≤4 colonies occur.

[2] = system: Cryptococcus neoformans (MY2061); experiment: broth microdilution assay (MIC/MFC)
Experimental: as §1, §2, §3, §4

[3] = system: Saccharomyces cerevisiae (MY2141); experiment: broth microdilution assay (MIC/MFC)
Experimental: as §1, §2, §3, §4

[4] = system: Candida glabrata (MY1381); experiment: broth microdilution assay (MIC/MFC)
Experimental: as §1, §2, §3, §4

[5] = system: Candida parapsilosis (MY1010); experiment: broth microdilution assay (MIC/MFC); conditions: 24 h, 35-37° C.
Experimental: as §1, §2, §3, §4

Candida albicans (CA2) = experiment: broth microdilution assay (MIC/MFC)
Experimental: as §1, §2, §3, §4

[6] = system: Candida pseudotropicalis (MY2099); experiment: broth microdilution assay (MIC/MFC)
Experimental: as §1, §2, §3, §4

[7] = system: Candida albicans (CLY539); experiment: broth microdilution assay (MIC/MFC)
Experimental: as §1, §2, §3, §4

[8] = system: Candida tropicalis (MY1012); experiment: broth microdilution assay (MIC/MFC)
Experimental: as §1, §2, §3, §4

[9] = system: Saccharomyces cerevisiae (MY2140); experiment: broth microdilution assay (MIC/MFC)
Experimental: as §1, §2, §3, §4

[10] = system: Candida albicans (MY1055); experiment: broth microdilution assay (MIC/MFC)
Experimental: as §1, §2, §3, §4

[11] = system: Candida tropicalis (MY1124); experiment: broth microdilution assay (MIC/MFC)
Experimental: as §1, §2, §3, §4

[12] = system: Cryptococcus neoformans (MY2062); experiment: broth microdilution assay (MIC/MFC)
Experimental: as §1, §2, §3, §4

[13] = system: Aspergillus fumigatus (MY4839); experiment: broth microdilution assay (MIC)
Experimental: as §1, with “inocula. […]” for “inocula.”
as §3, with “Growth and sterility controls for each organism and sterility checks for the compounds also were carried out.” left out
(§5) After recording MICs at 24 hours, the microtiter plates were shaken gently to resuspend the cells. […] For Cryptococcus neoformans, SDA plates were inoculated at 48 hours after recording MICs and incubated 48 hours before reading the MFC. […]

[14] = system: Aspergillus fumigatus (MY5668); experiment: broth microdilution assay (MIC)
Experimental: as §1, with “inocula. […]” for “inocula.”
as §3, with “Growth and sterility controls for each organism and sterility checks for the compounds also were carried out.” left out
as §5

[15] = system: Aspergillus flavus, Fusarium oxysporum, Ustilago zeae and the like; experiment: agar plate inhibition zone test, filamentous fungi; conditions: agar plates, 28° C. or 37° C., 24 hours, inhibition zones
panel of fungi = experiment: broth microdilution assay against a panel of fungi, comparison with amphotericin B; conditions: MIC and MFC against a panel of fungi
Experimental: as §1, with “inocula. […]” for “inocula.”
as §3, with “Growth and sterility controls for each organism and sterility checks for the compounds also were carried out.” left out
as §5

[16] = SDA incubated 48 h, no growth or ≤4 colonies

SMILES: CC(C)C1CCC2C1(C)CCC1(C)C3=CCC4C(C)(C(=O)O)C(O)C(O)C(O)C4(C(=O)O)C3CCC21C (centres unmarked) [Compound II]
- Minimum Inhibitory Concentration (MIC) ([1]; 24 h, 35-37° C.): > 128 µg/mL
- Minimum Fungicidal Concentration (MFC) ([1]; no growth or ≤4 colonies): > 128 µg/mL
- Minimum Fungicidal Concentration (MFC) [2, 16]: 4 µg/mL
- Minimum Inhibitory Concentration (MIC) ([2]; read at 48 h, 35-37° C.): 4 µg/mL
- Minimum Inhibitory Concentration (MIC) ([3]; 24 h, 35-37° C.): 4 µg/mL
- Minimum Fungicidal Concentration (MFC) ([3]; no growth or ≤4 colonies): 4 µg/mL
- Minimum Inhibitory Concentration (MIC) ([4]; 24 h, 35-37° C.): 8 µg/mL
- Minimum Fungicidal Concentration (MFC) ([4]; no growth or ≤4 colonies): 8 µg/mL
- Minimum Inhibitory Concentration (MIC) [5]: 32 µg/mL
- Minimum Inhibitory Concentration (MIC) (Candida albicans (CA2); 24 h, 35-37° C.): 8 µg/mL
- Minimum Fungicidal Concentration (MFC) (Candida albicans (CA2); no growth or ≤4 colonies): 8 µg/mL
- Minimum Inhibitory Concentration (MIC) ([6]; 24 h, 35-37° C.): 4 µg/mL
- Minimum Fungicidal Concentration (MFC) ([6]; no growth or ≤4 colonies): 4 µg/mL
- Minimum Inhibitory Concentration (MIC) ([7]; 24 h, 35-37° C.): 8 µg/mL
- Minimum Fungicidal Concentration (MFC) ([7]; no growth or ≤4 colonies): 8 µg/mL
- Minimum Inhibitory Concentration (MIC) ([8]; 24 h, 35-37° C.): 4 µg/mL
- Minimum Fungicidal Concentration (MFC) ([8]; no growth or ≤4 colonies): 8 µg/mL
- Minimum Inhibitory Concentration (MIC) ([9]; 24 h, 35-37° C.): 4 µg/mL
- Minimum Fungicidal Concentration (MFC) ([9]; no growth or ≤4 colonies): 4 µg/mL
- Minimum Inhibitory Concentration (MIC) ([10]; 24 h, 35-37° C.): 8 µg/mL
- Minimum Fungicidal Concentration (MFC) ([10]; no growth or ≤4 colonies): 8 µg/mL
- Minimum Inhibitory Concentration (MIC) ([11]; 24 h, 35-37° C.): 8 µg/mL
- Minimum Fungicidal Concentration (MFC) ([11]; no growth or ≤4 colonies): 8 µg/mL
- Minimum Fungicidal Concentration (MFC) [12, 16]: 4 µg/mL
- Minimum Inhibitory Concentration (MIC) ([12]; read at 48 h, 35-37° C.): 4 µg/mL
- Minimum Inhibitory Concentration (MIC) [13]: 8 µg/mL
- Minimum Inhibitory Concentration (MIC) [14]: > 128 µg/mL
- inhibition of growth of filamentous fungi [15]: effectively inhibit growth of the fungal organisms
- effective concentrations compared with amphotericin B (panel of fungi): effective at concentrations comparable to an established antifungal agent, amphotericin B
